Data reported in PMC5931096, “A Phase I study of the novel immunomodulatory agent PG545 (pixatimod) in subjects with advanced solid tumours” (British Journal of Cancer, 2018).
Entries after “also recorded” stand apart in the source; their conditions may differ.

Assay: Phase I dose-escalation: safety, tolerability, DLT and MTD of weekly 1-h IV infusion
Type: in vivo
Description: The study was an open-label, multicentre, phase 1 dose-escalation study using a 3 + 3 design. The primary objective was to determine the MTD of weekly administered PG545 via IV infusion. Secondary objectives were to characterize safety, tolerability, clinical activity, PK and PD biomarkers.
Patients continued treatment until disease progression, unacceptable toxicity or withdrawal (either voluntarily or investigator-decision).
All patients were assessed for safety, those who received at least one dose of PG545 were evaluated for efficacy. Safety assessment included the incidence of all adverse events (AEs), irrespective of relationship to study drug, according to the National Cancer Institute Common Terminology Criteria for Adverse Events, version 4.0, and the incidence of patients experiencing dose modifications and/or premature discontinuation of study drug. Dose-limiting toxicities (DLTs) used to determine the MTD were defined as occurring during Cycle 1 of treatment only and related to PG545 according to investigator assessment. If no DLT occurred in the first three subjects, the next three-subject cohort was enrolled at the next highest available dose level. If a single DLT occurred, an additional three subjects was enrolled at the same dose level. Dose escalation continued until two subjects of the cohort experienced a DLT; this was defined as the toxic dose level. The dose-escalation phase was completed and MTD determined by reducing the dose to the next lowest dose compared to the toxic dose and expanding this cohort to at least 6 subjects.

Compound: CC(C)CCC[C@@H](C)[C@H]1CC[C@H]2[C@@H]3CC[C@H]4C[C@@H](O[C@@H]5O[C@H](COS(=O)(=O)O)[C@@H](O[C@H]6O[C@H](COS(=O)(=O)O)[C@@H](O[C@H]7O[C@H](COS(=O)(=O)O)[C@@H](O[C@H]8O[C@H](COS(=O)(=O)O)[C@@H](OS(=O)(=O)O)[C@H](OS(=O)(=O)O)[C@H]8OS(=O)(=O)O)[C@H](OS(=O)(=O)O)[C@H]7OS(=O)(=O)O)[C@H](OS(=O)(=O)O)[C@H]6OS(=O)(=O)O)[C@H](OS(=O)(=O)O)[C@H]5OS(=O)(=O)O)CC[C@]4(C)[C@H]3CC[C@]12C [PG545]
- Acute pulmonary oedema, related AE leading to discontinuation (25 mg, N = 3): 0 n (%)
- Acute pulmonary oedema, related serious AE (25 mg, N = 3): 0 n (%)
- Acute pulmonary oedema, related severe AE (25 mg, N = 3): 0 n (%)
- Blood cholesterol increased, related severe AE (25 mg, N = 3): 0 n (%)
- Blood cholesterol increased, treatment-related AE (25 mg, N = 3): 0 n (%)
- Blood pressure increased, related severe AE (25 mg, N = 3): 0 n (%)
- Chills, related AE leading to discontinuation (25 mg, N = 3): 0 n (%)
- Chills, related severe AE (25 mg, N = 3): 0 n (%)
- Chills, treatment-related AE (25 mg, N = 3): 0 n (%)
- Decreased appetite, treatment-related AE (25 mg, N = 3): 0 n (%)
- Diarrhoea, treatment-related AE (25 mg, N = 3): 0 n (%)
- Epistaxis, related AE leading to discontinuation (25 mg, N = 3): 0 n (%)
- Epistaxis, related serious AE (25 mg, N = 3): 0 n (%)
- Epistaxis, related severe AE (25 mg, N = 3): 0 n (%)
- Fatigue, related severe AE (25 mg, N = 3): 0 n (%)
- Fatigue, treatment-related AE (25 mg, N = 3): 0 n (%)
- Headache, treatment-related AE (25 mg, N = 3): 0 n (%)
- Hypercholesterolemia, treatment-related AE (25 mg, N = 3): 0 n (%)
- Hyperlipidaemia, related severe AE (25 mg, N = 3): 0 n (%)
- Hypertension, related AE leading to discontinuation (25 mg, N = 3): 0 n (%)
- Hypertension, related serious AE (25 mg, N = 3): 0 n (%)
- Hypertension, related severe AE (25 mg, N = 3): 0 n (%)
- Hypertension, treatment-related AE (25 mg, N = 3): 0 n (%)
- Hypovolaemia, related serious AE (25 mg, N = 3): 0 n (%)
- Infusion-related reaction, related serious AE (25 mg, N = 3): 0 n (%)
- Infusion-related reaction, related severe AE (25 mg, N = 3): 0 n (%)
- Infusion-related reaction, treatment-related AE (25 mg, N = 3): 0 n (%)
- Injection site reaction, treatment-related AE (25 mg, N = 3): 2 (67) n (%)
- Nausea, treatment-related AE (25 mg, N = 3): 0 n (%)
- Pyrexia, related AE leading to discontinuation (25 mg, N = 3): 0 n (%)
- Pyrexia, related serious AE (25 mg, N = 3): 0 n (%)
- Pyrexia, related severe AE (25 mg, N = 3): 0 n (%)
- Pyrexia, treatment-related AE (25 mg, N = 3): 0 n (%)
- Acute pulmonary oedema, related AE leading to discontinuation (50 mg, N = 5): 0 n (%)
- Acute pulmonary oedema, related serious AE (50 mg, N = 5): 0 n (%)
- Acute pulmonary oedema, related severe AE (50 mg, N = 5): 0 n (%)
- Blood cholesterol increased, related severe AE (50 mg, N = 5): 0 n (%)
- Blood cholesterol increased, treatment-related AE (50 mg, N = 5): 0 n (%)
- Blood pressure increased, related severe AE (50 mg, N = 5): 0 n (%)
- Chills, related AE leading to discontinuation (50 mg, N = 5): 1 (20) n (%)
- Chills, related severe AE (50 mg, N = 5): 1 (20) n (%)
- Chills, treatment-related AE (50 mg, N = 5): 1 (20) n (%)
- Decreased appetite, treatment-related AE (50 mg, N = 5): 2 (40) n (%)
- Diarrhoea, treatment-related AE (50 mg, N = 5): 1 (20) n (%)
- Epistaxis, related AE leading to discontinuation (50 mg, N = 5): 0 n (%)
- Epistaxis, related serious AE (50 mg, N = 5): 0 n (%)
- Epistaxis, related severe AE (50 mg, N = 5): 0 n (%)
- Fatigue, related severe AE (50 mg, N = 5): 1 (20) n (%)
- Fatigue, treatment-related AE (50 mg, N = 5): 2 (40) n (%)
- Headache, treatment-related AE (50 mg, N = 5): 0 n (%)
- Hypercholesterolemia, treatment-related AE (50 mg, N = 5): 0 n (%)
- Hyperlipidaemia, related severe AE (50 mg, N = 5): 0 n (%)
- Hypertension, related AE leading to discontinuation (50 mg, N = 5): 0 n (%)
- Hypertension, related serious AE (50 mg, N = 5): 0 n (%)
- Hypertension, related severe AE (50 mg, N = 5): 0 n (%)
- Hypertension, treatment-related AE (50 mg, N = 5): 1 (20) n (%)
- Hypovolaemia, related serious AE (50 mg, N = 5): 0 n (%)
- Infusion-related reaction, related serious AE (50 mg, N = 5): 0 n (%)
- Infusion-related reaction, related severe AE (50 mg, N = 5): 0 n (%)
- Infusion-related reaction, treatment-related AE (50 mg, N = 5): 0 n (%)
- Injection site reaction, treatment-related AE (50 mg, N = 5): 0 n (%)
- Nausea, treatment-related AE (50 mg, N = 5): 4 (80) n (%)
- Pyrexia, related AE leading to discontinuation (50 mg, N = 5): 1 (20) n (%)
- Pyrexia, related serious AE (50 mg, N = 5): 1 (20) n (%)
- Pyrexia, related severe AE (50 mg, N = 5): 1 (20) n (%)
- Pyrexia, treatment-related AE (50 mg, N = 5): 3 (60) n (%)
- Dose-limiting toxicities (DLTs) (100 mg cohort): No DLTs were noted; also recorded: no further DLT observed
- Hypertension (100 mg cohort): not observed
- Acute pulmonary oedema, related AE leading to discontinuation (100 mg, N = 6): 0 n (%)
- Acute pulmonary oedema, related serious AE (100 mg, N = 6): 0 n (%)
- Acute pulmonary oedema, related severe AE (100 mg, N = 6): 0 n (%)
- Blood cholesterol increased, related severe AE (100 mg, N = 6): 0 n (%)
- Blood cholesterol increased, treatment-related AE (100 mg, N = 6): 1 (17) n (%)
- Blood pressure increased, related severe AE (100 mg, N = 6): 0 n (%)
- Chills, related AE leading to discontinuation (100 mg, N = 6): 0 n (%)
- Chills, related severe AE (100 mg, N = 6): 0 n (%)
- Chills, treatment-related AE (100 mg, N = 6): 0 n (%)
- Decreased appetite, treatment-related AE (100 mg, N = 6): 1 (17) n (%)
- Diarrhoea, treatment-related AE (100 mg, N = 6): 2 (33) n (%)
- Epistaxis, related AE leading to discontinuation (100 mg, N = 6): 0 n (%)
- Epistaxis, related serious AE (100 mg, N = 6): 0 n (%)
- Epistaxis, related severe AE (100 mg, N = 6): 0 n (%)
- Fatigue, related severe AE (100 mg, N = 6): 1 (17) n (%)
- Fatigue, treatment-related AE (100 mg, N = 6): 2 (33) n (%)
- Headache, treatment-related AE (100 mg, N = 6): 2 (33) n (%)
- Hypercholesterolemia, treatment-related AE (100 mg, N = 6): 2 (33) n (%)
- Hyperlipidaemia, related severe AE (100 mg, N = 6): 1 (17) n (%)
- Hypertension, related AE leading to discontinuation (100 mg, N = 6): 0 n (%)
- Hypertension, related serious AE (100 mg, N = 6): 0 n (%)
- Hypertension, related severe AE (100 mg, N = 6): 0 n (%)
- Hypertension, treatment-related AE (100 mg, N = 6): 0 n (%)
- Hypovolaemia, related serious AE (100 mg, N = 6): 1 (17) n (%)
- Infusion-related reaction, related serious AE (100 mg, N = 6): 0 n (%)
- Infusion-related reaction, related severe AE (100 mg, N = 6): 0 n (%)
- Infusion-related reaction, treatment-related AE (100 mg, N = 6): 0 n (%)
- Injection site reaction, treatment-related AE (100 mg, N = 6): 0 n (%)
- Nausea, treatment-related AE (100 mg, N = 6): 0 n (%)
- Pyrexia, related AE leading to discontinuation (100 mg, N = 6): 0 n (%)
- Pyrexia, related serious AE (100 mg, N = 6): 0 n (%)
- Pyrexia, related severe AE (100 mg, N = 6): 0 n (%)
